Test results from patent US10118926B2, “Tricyclic quinoline and quinoxaline derivatives” (AbbVie Deutschland GmbH & Co. KG, priority 2012, dated 2018).

Molecular target: T1, 5-HT2C receptor (Homo sapiens, UniProt P28335)
T1 construct: β-galactosidase enzyme-complementation fragment (ProLink-type donor); host or cells: U2OS
Assay: Functional activity: beta-arrestin2 recruitment to the 5-HT2C receptor in U2OS_HTR2C_β-Arrestin cells (DiscoverX)
Assay type: cell-based
Conditions: for EC50: U2OS_HTR2C_β-Arrestin cells, 1.5 h incubation, chemiluminescent β-galactosidase complementation readout, read-out: Potency (EC50) in functional assay; for Emax: relative efficacy: response as percentage of response to 10 μM 5-HT or maximal effect induced by 5-HT (defined as 100%)
Experimental: The functional activity of compounds of formula I was assayed by incubation with U2OS_HTR2C_β-Arrestin cells (DiscoverX, 93-0289C3) to induce beta-arrestin2 recruitment to the 5-HT2C receptor. The agonist-induced recruitment and proximity of the receptor and beta-arrestin2 leads to complementation and formation of active β-galactosidase. The enzyme complementation results in enzyme activity, which is measured following the termination of the agonist incubation using DiscoveRx's detection reagent, which contains a chemiluminescent substrate which produces a high intensity signal. Cells were plated and a medium-change to a 1% serum containing medium was performed 24 h later. The next day, test compounds were added and incubated for 1.5 h before addition of detection reagent.
The response produced was measured and compared with the response produced by 10 [mu]M 5-HT or the maximal effect induced by 5-HT (defined as 100%) to which it was expressed as a percentage response (relative efficacy). Dose response curves were constructed using Graphpad Prism (Graph Software Inc.) or using in house adapted software using a 4 parameter dose response model with variable slope (fit=(Bottom+(Top−Bottom)/(1+10^((Log EC50−x)*HillSlope))res=(y−fit)). Results are compiled in the table below.

T1 sequence (P28335 33-458): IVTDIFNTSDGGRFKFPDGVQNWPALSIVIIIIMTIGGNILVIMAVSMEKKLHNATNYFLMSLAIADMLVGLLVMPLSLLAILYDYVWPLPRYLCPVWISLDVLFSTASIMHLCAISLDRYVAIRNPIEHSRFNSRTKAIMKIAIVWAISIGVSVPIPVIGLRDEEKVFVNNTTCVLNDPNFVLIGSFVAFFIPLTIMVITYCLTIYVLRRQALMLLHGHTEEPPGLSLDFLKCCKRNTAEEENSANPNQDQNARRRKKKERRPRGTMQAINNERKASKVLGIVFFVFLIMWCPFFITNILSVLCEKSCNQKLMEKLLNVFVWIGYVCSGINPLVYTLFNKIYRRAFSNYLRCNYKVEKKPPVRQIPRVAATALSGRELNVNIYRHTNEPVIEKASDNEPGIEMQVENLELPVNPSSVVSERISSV
T1 sequence (P32121 whole entry partner, the tested form may be a part): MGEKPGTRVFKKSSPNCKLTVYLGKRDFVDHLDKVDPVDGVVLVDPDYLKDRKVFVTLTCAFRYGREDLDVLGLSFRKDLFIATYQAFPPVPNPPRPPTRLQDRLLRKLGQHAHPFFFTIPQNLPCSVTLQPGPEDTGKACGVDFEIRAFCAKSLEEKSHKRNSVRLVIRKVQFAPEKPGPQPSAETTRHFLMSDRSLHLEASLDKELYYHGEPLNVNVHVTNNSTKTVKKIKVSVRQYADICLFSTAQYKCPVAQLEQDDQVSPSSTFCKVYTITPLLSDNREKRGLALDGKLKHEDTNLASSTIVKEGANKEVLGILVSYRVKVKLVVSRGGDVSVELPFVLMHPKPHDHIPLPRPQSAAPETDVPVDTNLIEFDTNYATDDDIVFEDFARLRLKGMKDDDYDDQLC

| SMILES | EC50 [nM] | Emax [%] |
| --- | --- | --- |
| CCCN1CCN2CCNCc3cccc1c32 [Example 70, 1-Propyl-2,3,5,6,7,8-hexahydro-1H-[1,4]diazepino[1,7,6-de]quinoxaline] | 20 to 200 | 63 |
| Cc1cc2c3c(c1)C1(CCC1)CCN3CCNC2 [Example 76, 10-Methyl-1,2,3,4,6,7-hexahydrospiro[[1,4]diazepino[6,7,1-ij]quinoline-8,1′-cyclobutane], trifluoroacetic acid] | < 20 | 98 |
